Test results from US20200289450A1, “METHODS OF REDUCING OR PREVENTING OXIDATIVE MODIFICATION OF MEMBRANE POLYUNSATURATED FATTY ACIDS” (Amarin Pharmaceuticals Ireland Limited, priority 2013, published 2020).
Values belong to the molecule of their own block, whether it stands above or below them.

How the values were obtained:
[1] = Glucose-induced membrane lipid peroxidation (LOOH), CHOD-iodide assay in MLVs (Example 4)
Procedure: Vitamin E (α-tocopherol) was also purchased from Sigma-Aldrich and prepared in ethanol at 1.0 mM (ϵ=3.06×10^4 M^−1 cm^−1 at 294 nm) just prior to experimental use. […] All test compounds were further diluted in ethanol or aqueous buffer as needed. Glucose was prepared in saline buffer (0.5 mM HEPES, 154 mM NaCl, pH 7.3) at 11.0 mM (200 mg/dL). CHOD-iodide color reagent (stock) was prepared, with slight modification, as described by from El-Saadani et al. (J. […] Prior to experimental use, the CHOD reagent was activated by adding 24 μM ethylenediaminetetraacetic acid (EDTA), 20 μM butylated hydroxytoluene (BHT), and 0.2% Triton X-100. Multilamellar vesicles (MLVs) were prepared as binary mixtures of DLPC (1.0 or 2.5 mg total phospholipid per sample) and cholesterol at a fixed cholesterol-to-phospholipid (C/P) mole ratio of 0.6:1. […] Aliquot volume was reduced with each successive time point to ensure that spectrophotometric readings were within the optimal adsorption range. […] Sample absorbances were then measured against a CHOD blank at 365 nm using a Beckman DU-640 spectrophotometer. The CHOD colorimetric assay is based on the oxidation of iodide (I^−) by lipid hydroperoxide (LOOH) to form triiodide (I3^−), the quantity of which is directly proportional to the amount of LOOH present in the lipid sample. […]

[2] = Glucose- and peroxidation-induced cholesterol domain formation, small angle x-ray diffraction (Example 4); type: physicochemical
Procedure: The membrane structural effects of glucose and the various compounds examined in this study were measured at 0, 72, and 96 hour intervals. Membrane lipid vesicles were oriented for x-ray diffraction analysis as described by others (e.g., Herbette et al., Biophys. J., vol. 20(2), pages 245-272 (1977)). Briefly, a 100 μL aliquot (containing 250 μg MLV) was aspirated from each sample and transferred to a Lucite® sedimentation cell fitted with an aluminum foil substrate upon which a given sample could be collected by centrifugation. Samples were then loaded into a Sorvall AH-629 swinging bucket rotor (DuPont Corp., Wilmington, Del.) and centrifuged at 35,000 g, 5° C., for 90 min.
After centrifugal orientation, sample supernatants were aspirated and aluminum foil substrates, each supporting a single membrane pellet, were removed from the sedimentation cells. Sample pellets were dried for 5-10 min at ambient conditions, mounted onto curved glass supports, and placed in hermetically-sealed, brass or glass containers (for immediate analysis or temporary storage, respectively). All x-ray diffraction experiments were conducted at 20° C., 74% relative humidity. The latter was established by exposing membrane samples to saturated solutions of L-(+) […] (K2C4H4O6.½H2O). Samples were incubated at these conditions for at least 1 hour prior to experimental analysis.
Oriented membrane samples were aligned at grazing incidence with respect to a collimated, mono-chromatic CuKα x-ray beam (Kα1 and Kα2 unresolved; λ=1.54 Å) produced by a Rigaku Rotaflex RU-200, high-brilliance microfocus generator (Rigaku-MSC, The Woodlands, Tex.) as previously described (Mason et al, Biophys. J., vol. 55(4), pages 769-778 (1989)). […]
The d-space for any given membrane multibilayer is a measurement of the unit cell periodicity of the membrane lipid bilayer (e.g., the distance from the center of one lipid bilayer to the next including surface hydration), and is calculated from Bragg's Law, hλ=2dsinθ, where h is the diffraction order, λ is the wavelength of the x-ray radiation (1.54 Å), d is the membrane lipid bilayer unit cell periodicity, and θ is the Bragg angle equal to one-half the angle between the incident beam and scattered beam.
The presence of cholesterol domains in a given membrane sample results in the production of distinct Bragg (diffraction) peaks having singular periodicity values of 34 and 17 Å (typically referred to as first- and second-order cholesterol domain peaks). Under the specific temperature and relative humidity conditions established for these experiments, the second-order, 17 Å cholesterol domain peak was well-delineated from other, neighboring cholesterol and phospholipid diffraction peaks and was thus used to quantitate relative cholesterol domain peak intensity. […]

[3] = test system: human sdLDL; test: Copper-initiated sdLDL oxidation, TBARS (Example 6)
Procedure: (§1) An experiment to study the antioxidant effect of EPA in small dense LDL (“sdLDL”) was performed. EPA was purchased from Sigma-Aldrich (Saint Louis, Mo.) and solubilized in ethanol to 1 mM under nitrogen atmosphere. Vitamin E (α-tocopherol) was purchased from Sigma-Aldrich and prepared in ethanol at 1.0 mM (ϵ=3.06×10^4 M^−1 cm^−1 at 294 nm) just prior to experimental use. All test compounds were further diluted in ethanol or aqueous buffer as needed.
(§2) Venous blood was collected from healthy volunteers into vacutainer tubes containing sodium EDTA. Plasma was separated by centrifugation at 3000 g for 25 min at 4° C. and adjusted to a density of 1.020 g/mL with KBr. […] Sample TBARS concentrations were determined spectrophotometrically by measuring sample absorbances against a standard curve derived from the hydrolysis of 1,1,3,3-tetramethoxypropane.
(§3) Data are presented as mean±S.D. for (N) separate samples or treatment groups. Differences between groups were analyzed using the two-tailed, Student's t-test (for comparisons between only two groups) or ANOVA followed by Dunnett or Student-Newman-Keuls multiple comparisons post-hoc analysis (for comparisons between three or more groups). […]

[4] = test system: human LDL (unfractionated); test: Copper-initiated oxidation of unfractionated LDL, TBARS (Example 6); details: 1.0 μM to 10.0 μM
Procedure: as §1, §2, §3

[5] = molecular target: T1, HMG-CoA reductase (Homo sapiens, UniProt P04035); details: metabolized by hepatic cytochrome P450; cited from earlier work
T1 sequence (P04035 1-888): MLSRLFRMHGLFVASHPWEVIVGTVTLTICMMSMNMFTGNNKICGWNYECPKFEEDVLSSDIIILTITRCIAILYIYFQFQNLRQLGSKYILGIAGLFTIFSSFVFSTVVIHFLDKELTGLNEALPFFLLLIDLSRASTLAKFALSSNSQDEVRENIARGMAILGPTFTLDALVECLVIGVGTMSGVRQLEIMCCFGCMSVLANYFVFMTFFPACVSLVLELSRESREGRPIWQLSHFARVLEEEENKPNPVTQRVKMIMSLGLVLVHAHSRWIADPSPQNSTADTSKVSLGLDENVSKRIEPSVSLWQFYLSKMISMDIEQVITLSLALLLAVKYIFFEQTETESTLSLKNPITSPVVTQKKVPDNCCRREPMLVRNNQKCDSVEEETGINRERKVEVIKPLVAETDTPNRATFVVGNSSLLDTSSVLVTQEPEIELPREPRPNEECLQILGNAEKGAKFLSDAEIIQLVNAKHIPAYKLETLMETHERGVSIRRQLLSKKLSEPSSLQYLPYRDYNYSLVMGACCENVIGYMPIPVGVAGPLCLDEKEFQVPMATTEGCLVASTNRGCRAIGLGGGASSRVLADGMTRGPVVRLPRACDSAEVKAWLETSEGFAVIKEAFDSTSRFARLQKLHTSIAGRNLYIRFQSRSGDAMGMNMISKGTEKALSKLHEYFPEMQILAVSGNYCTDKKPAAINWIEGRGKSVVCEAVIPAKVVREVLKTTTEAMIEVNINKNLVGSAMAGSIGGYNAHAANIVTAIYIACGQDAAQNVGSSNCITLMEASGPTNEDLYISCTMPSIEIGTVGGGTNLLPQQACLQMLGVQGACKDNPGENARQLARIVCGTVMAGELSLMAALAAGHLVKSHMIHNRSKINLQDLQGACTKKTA

[6] = cited from earlier work
[7] = test system: human low density lipoprotein and model liposomes; details: cited from earlier work

effect on membrane structure compared to control samples ([2]; 0 hours (start of experiment), glucose 200 mg/dL, 1:30 drug-to-phospholipid mole ratio): no appreciable effect
Compound: Cc1c(C)c2c(c(C)c1O)CC[C@@](C)(CCC[C@H](C)CCC[C@H](C)CCCC(C)C)O2 [vitamin E, α-tocopherol]
effect on LOOH formation / lipid peroxidation (FIG. 3) ([1]; 72- and 96-hour time points, glucose, 1:30 drug-to-phospholipid mole ratio): no significant effect
cholesterol crystalline domain peaks (d-space 34 Å) ([2]; 72 hours oxidative conditions, glucose 200 mg/dL, 1:30): observed
cholesterol domain peaks ([2]; 96 hours oxidative conditions, glucose 200 mg/dL, 1:30): disproportionately greater
effect on cholesterol domain formation compared to control ([2]; any experimental time point (FIG. 5)): no significant effect
sdLDL oxidation ([3]; 1.0 μM to 10.0 μM): did not inhibit sdLDL oxidation except at the highest concentration
reduction of TBARS levels compared to vehicle-treated controls ([3]; sdLDL, 10.0 μM, 2 hr after 10 μM CuSO4): 26%
LDL oxidation [4]: did not inhibit LDL oxidation at any concentration

Compound: CC(C)c1c(C(=O)Nc2ccccc2)c(-c2ccccc2)c(-c2ccc(F)cc2)n1CC[C@@H](O)C[C@@H](O)CC(=O)O [atorvastatin]
share of circulating HMG-CoA reductase inhibitory activity accounted for by active metabolites [5]: approximately 70%
circulating levels of chlorotyrosine ([6]; 10 mg, 12 weeks): significantly reduce
circulating levels of dityrosine ([6]; 10 mg, 12 weeks): significantly reduce
circulating levels of nitrotyrosine ([6]; 10 mg, 12 weeks): significantly reduce
levels of oxidized lipids associated with all apoB100-containing lipid particles ([6]; 80 mg, 16 weeks, 2,341 patients): significant reduction

Compound: CC(C)c1c(C(=O)Nc2ccccc2O)c(-c2ccccc2)c(-c2ccc(F)cc2)n1CC[C@@H](O)C[C@@H](O)CC(=O)O [ATM, Atorvastatin ortho- (o-) hydroxy (active) metabolite]
antioxidant effects (LOOH formation) ([1]; each at 1.0 μM, glucose 200 mg/dL, 96 hours): separate and potent antioxidant effects
antioxidant properties [7]: potent antioxidant properties
